# Measurements published in article PMC11012124, “Synthesis of Novel Triazine-Based Chalcones and 8,9-dihydro-7H-pyrimido[4,5-b][1,4]diazepines as Potential Leads in the Search of Anticancer, Antibacterial and Antifungal Agents” (International Journal of Molecular Sciences, 2024).
# Columns and labels:
# SK-MEL-2 = test: cells; conditions: Homo sapiens, SK-MEL-2, 48 h
# HCT-116 = test: cells; conditions: Homo sapiens, HCT-116, 48 h
# DU-145 = test: cells; conditions: Homo sapiens, DU-145, 48 h
# SK-OV-3 = test: cells; conditions: Homo sapiens, SK-OV-3, 48 h
# MDA-MB-468 = test: cells; conditions: Homo sapiens, MDA-MB-468, 48 h
# COLO 205 = test: cells; conditions: Homo sapiens, COLO 205, 48 h
# SF-295 = test: cells; conditions: Homo sapiens, SF-295, 48 h
# A498 = test: cells; conditions: Homo sapiens, A498, 48 h
# LOX IMVI = test: cells; conditions: Homo sapiens, 48 h
# UO-31 = test: cells; conditions: Homo sapiens, UO-31, 48 h, read-out: LC50
# HL-60(TB) = test: cells; conditions: Homo sapiens, HL-60, 48 h
# T-47D = test: cells; conditions: Homo sapiens, T47D, 48 h
# MDA-MB-231/ATCC = test: cells; conditions: Homo sapiens, MDA-MB-231, 48 h
# M14 = test: cells; conditions: Homo sapiens, M14, 48 h
# UACC-257 = test: cells; conditions: Homo sapiens, UACC-257, 48 h
# SF-539 = test: cells; conditions: Homo sapiens, SF-539, 48 h
# NCI-H226 = test: cells; conditions: Homo sapiens, NCI-H226, 48 h
# MCF7 = test: cells; conditions: Homo sapiens, MCF7, 48 h
# TK-10 = test: cells; conditions: Homo sapiens, TK-10, 48 h
# RPMI-8226 = test: cells; conditions: Homo sapiens, RPMI-8226, 48 h
# SK-MEL-5 = test: cells; conditions: Homo sapiens, SK-MEL-5, 48 h
# OVCAR-4 = test: cells; conditions: Homo sapiens, OVCAR-4, 48 h
# 786-0 = test: cells; conditions: Homo sapiens, 786-0, 48 h
# U251 = test: cells; conditions: Homo sapiens, U-251, 48 h
# 60 cancer cell lines = test: NCI-60 one-dose screen (10 μM); format: cell-based; conditions: Homo sapiens; one dose of 10 μM, mean over 60 cancer cell lines; read-out: Mean Growth Percent (MGP)
# Source text: Additionally, the mean of the growth percentages (MGP) of each compound against all the 60 cancer cell lines is also reported, which is used as one of the selection criteria to continue with tests at five concentration doses.
# HT29 = test: cells; conditions: Homo sapiens, HT-29, 48 h
# A549/ATCC = test: cells; conditions: Homo sapiens, A549, 48 h
# SN12C = test: cells; conditions: Homo sapiens, 48 h
# KM12 = test: cells; conditions: Homo sapiens, KM12, 48 h
# HOP-92 = test: cells; conditions: Homo sapiens, HOP-92, 48 h
# OVCAR-5 = test: cells; conditions: Homo sapiens, OVCAR-5, 48 h
# MOLT-4 = test: cells; conditions: Homo sapiens, MOLT-4, 48 h
# NCI-H522 = test: cells; conditions: Homo sapiens, NCI-H522, 48 h
# SNB-75 = test: cells; conditions: Homo sapiens, SNB-75, 48 h
# NCI-H460 = test: cells; conditions: Homo sapiens, NCI-H460, 48 h
# HCT-15 = test: cells; conditions: Homo sapiens, HCT-15, 48 h
# NCI-H23 = test: cells; conditions: Homo sapiens, NCI-H23, 48 h
smiles,measurement,setting,value
COc1cc(C2CC(c3ccc(Cl)cc3)=Nc3c(N)nc(N)nc3N2)ccc1Oc1nc(Nc2ccc(F)cc2)nc(N(C)C)n1 (stereo not drawn) [29e],GI50,SK-MEL-2,> 100 µM
same,CC50,SK-MEL-2; read-out: LC50,> 100 µM
same,GI50,HCT-116,12.5 µM
same,CC50,HCT-116; read-out: LC50,> 100 µM
same,GI50,DU-145,> 100 µM
same,CC50,DU-145; read-out: LC50,> 100 µM
same,GI50,SK-OV-3,> 100 µM
same,CC50,SK-OV-3; read-out: LC50,> 100 µM
same,GI50,MDA-MB-468,17.8 µM
same,CC50,MDA-MB-468; read-out: LC50,> 100 µM
same,GI50,COLO 205,> 100 µM
same,CC50,COLO 205; read-out: LC50,> 100 µM
same,GI50,SF-295,> 100 µM
same,CC50,SF-295; read-out: LC50,> 100 µM
same,GI50,A498,> 100 µM
same,CC50,A498; read-out: LC50,> 100 µM
same,GI50,LOX IMVI,47.8 µM
same,CC50,"LOX IMVI; read-out: LC50, LOX IMVI, 48 h",> 100 µM
same,CC50,UO-31,> 100 µM
same,GI50,HL-60(TB),44.7 µM
same,CC50,HL-60(TB); read-out: LC50,> 100 µM
same,GI50,T-47D,> 100 µM
same,CC50,T-47D; read-out: LC50,> 100 µM
same,GI50,MDA-MB-231/ATCC,6.73 µM
same,CC50,MDA-MB-231/ATCC; read-out: LC50,> 100 µM
same,GI50,M14,> 100 µM
same,CC50,M14; read-out: LC50,> 100 µM
same,GI50,UACC-257,> 100 µM
same,CC50,UACC-257; read-out: LC50,> 100 µM
same,GI50,SF-539,> 100 µM
same,CC50,"SF-539; read-out: LC50, SF-539, 48 h",> 100 µM
same,GI50,NCI-H226,> 100 µM
same,CC50,NCI-H226; read-out: LC50,> 100 µM
same,GI50,MCF7,9.9 µM
same,CC50,MCF7; read-out: LC50,> 100 µM
same,GI50,TK-10,> 100 µM
same,CC50,TK-10; read-out: LC50,> 100 µM
same,GI50,RPMI-8226,26.4 µM
same,CC50,RPMI-8226; read-out: LC50,> 100 µM
same,GI50,SK-MEL-5,17.2 µM
same,CC50,SK-MEL-5; read-out: LC50,> 100 µM
same,GI50,OVCAR-4,18.9 µM
same,CC50,OVCAR-4; read-out: LC50,> 100 µM
same,GI50,786-0,> 100 µM
same,CC50,786-0; read-out: LC50,> 100 µM
same,GI50,"U251; U251, 48 h",> 100 µM
same,CC50,U251; read-out: LC50,> 100 µM
same,activity at 10 µM,60 cancer cell lines,40.9%
same,GI50,HT29,29.4 µM
same,CC50,HT29; read-out: LC50,> 100 µM
same,GI50,A549/ATCC,> 100 µM
same,CC50,A549/ATCC; read-out: LC50,> 100 µM
same,GI50,SN12C,> 100 µM
same,CC50,SN12C; read-out: LC50,> 100 µM
same,GI50,KM12,40.1 µM
same,CC50,KM12; read-out: LC50,> 100 µM
same,GI50,HOP-92,3 µM
same,CC50,HOP-92; read-out: LC50,> 100 µM
same,GI50,OVCAR-5,> 100 µM
same,CC50,OVCAR-5; read-out: LC50,> 100 µM
same,GI50,MOLT-4,8.54 µM
same,CC50,MOLT-4; read-out: LC50,> 100 µM
same,GI50,NCI-H522,> 100 µM
same,CC50,NCI-H522; read-out: LC50,> 100 µM
same,GI50,SNB-75,3.24 µM
same,CC50,SNB-75; read-out: LC50,> 100 µM
same,GI50,NCI-H460,42.3 µM
same,CC50,NCI-H460; read-out: LC50,> 100 µM
same,GI50,HCT-15,76.6 µM
same,CC50,HCT-15; read-out: LC50,> 100 µM
same,GI50,NCI-H23,> 100 µM
same,CC50,NCI-H23; read-out: LC50,> 100 µM
